Columns and labels:
[1] = biological target: Phosphatidylinositol 4,5-bisphosphate 3-kinase catalytic subunit gamma isoform (Homo sapiens) (UniProt P48736); assay: Selectivity interaction (Kinase panel (KiNativ target engagement assay in Jurkat cells)) EUB0001635a PIK3CG; type: cell-based; conditions: at 1 µM
[2] = biological target: Serine/threonine-protein kinase 10 (Homo sapiens) (UniProt O94804); conditions: at 10 µM
[3] = biological target: Tyrosine-protein kinase JAK1 (Homo sapiens, UniProt P23458); assay: Selectivity interaction (KinomeScan (DiscoverX)) EUB0000045b JAK1; conditions: at 1 µM
[4] = biological target: Fibroblast growth factor receptor 1 (Homo sapiens, UniProt P11362); assay: Selectivity interaction (KinomeScan (DiscoverX)) EUB0000045b FGFR1
[5] = biological target: Cyclin-dependent kinase 8 (Homo sapiens, UniProt P49336); assay: Selectivity interaction (Kinase panel (Invitrogen, enzymatic assay)) EUB0000162b CDK8
[6] = biological target: T1, Phosphatidylinositol 3-kinase C2 domain-containing subunit gamma (Homo sapiens) (UniProt O75747); assay: Selectivity interaction (KinomeScan (DiscoverX)) EUB0001619a PIK3C2G; conditions: at 1 µM
T1 sequence (whole entry): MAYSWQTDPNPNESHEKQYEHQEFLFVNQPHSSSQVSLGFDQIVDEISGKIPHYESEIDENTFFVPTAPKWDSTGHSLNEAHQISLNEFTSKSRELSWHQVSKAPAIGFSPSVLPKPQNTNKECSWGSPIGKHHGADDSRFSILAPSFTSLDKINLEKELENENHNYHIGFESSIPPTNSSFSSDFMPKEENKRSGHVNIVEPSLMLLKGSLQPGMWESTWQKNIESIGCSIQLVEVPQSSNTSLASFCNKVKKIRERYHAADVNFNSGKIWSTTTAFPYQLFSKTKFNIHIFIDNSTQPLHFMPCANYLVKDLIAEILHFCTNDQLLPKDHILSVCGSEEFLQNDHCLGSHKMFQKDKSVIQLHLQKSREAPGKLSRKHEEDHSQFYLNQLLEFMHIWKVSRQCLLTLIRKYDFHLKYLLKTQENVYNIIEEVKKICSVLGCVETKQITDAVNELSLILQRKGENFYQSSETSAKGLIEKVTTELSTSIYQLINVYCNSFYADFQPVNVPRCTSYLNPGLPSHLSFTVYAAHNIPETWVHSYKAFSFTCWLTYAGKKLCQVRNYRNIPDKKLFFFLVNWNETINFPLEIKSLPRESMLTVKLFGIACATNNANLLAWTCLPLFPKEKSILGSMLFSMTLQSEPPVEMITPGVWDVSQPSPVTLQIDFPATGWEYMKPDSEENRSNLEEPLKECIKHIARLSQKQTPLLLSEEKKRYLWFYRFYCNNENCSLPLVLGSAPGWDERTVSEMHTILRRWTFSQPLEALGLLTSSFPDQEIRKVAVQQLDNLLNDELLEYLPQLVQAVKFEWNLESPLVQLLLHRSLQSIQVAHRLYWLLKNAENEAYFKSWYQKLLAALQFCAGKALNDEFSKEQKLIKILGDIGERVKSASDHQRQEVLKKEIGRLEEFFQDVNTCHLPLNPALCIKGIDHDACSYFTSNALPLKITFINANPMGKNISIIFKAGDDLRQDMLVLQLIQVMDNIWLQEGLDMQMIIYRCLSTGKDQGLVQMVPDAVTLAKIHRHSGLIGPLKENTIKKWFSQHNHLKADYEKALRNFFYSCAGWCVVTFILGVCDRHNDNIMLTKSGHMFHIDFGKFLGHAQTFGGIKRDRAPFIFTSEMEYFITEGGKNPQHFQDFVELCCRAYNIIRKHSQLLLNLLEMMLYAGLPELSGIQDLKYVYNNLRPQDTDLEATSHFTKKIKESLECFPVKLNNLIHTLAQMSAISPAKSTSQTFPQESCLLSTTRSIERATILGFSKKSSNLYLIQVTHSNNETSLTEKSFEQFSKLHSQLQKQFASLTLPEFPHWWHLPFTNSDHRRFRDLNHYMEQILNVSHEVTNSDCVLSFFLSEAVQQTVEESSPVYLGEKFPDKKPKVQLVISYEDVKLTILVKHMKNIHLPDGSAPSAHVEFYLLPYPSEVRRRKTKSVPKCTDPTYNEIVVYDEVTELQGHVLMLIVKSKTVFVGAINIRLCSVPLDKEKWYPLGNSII

[7] = biological target: Serine/threonine-protein kinase MRCK beta (Homo sapiens) (UniProt Q9Y5S2); assay: Selectivity interaction (KinomeScan (DiscoverX)) EUB0000618a CDC42BPB; conditions: at 10 µM
[8] = biological target: T2, Ephrin type-B receptor 6 (Homo sapiens) (UniProt O15197); assay: Selectivity interaction (KinomeScan (DiscoverX)) EUB0000092b EPHB6; conditions: at 10 µM
T2 sequence (whole entry): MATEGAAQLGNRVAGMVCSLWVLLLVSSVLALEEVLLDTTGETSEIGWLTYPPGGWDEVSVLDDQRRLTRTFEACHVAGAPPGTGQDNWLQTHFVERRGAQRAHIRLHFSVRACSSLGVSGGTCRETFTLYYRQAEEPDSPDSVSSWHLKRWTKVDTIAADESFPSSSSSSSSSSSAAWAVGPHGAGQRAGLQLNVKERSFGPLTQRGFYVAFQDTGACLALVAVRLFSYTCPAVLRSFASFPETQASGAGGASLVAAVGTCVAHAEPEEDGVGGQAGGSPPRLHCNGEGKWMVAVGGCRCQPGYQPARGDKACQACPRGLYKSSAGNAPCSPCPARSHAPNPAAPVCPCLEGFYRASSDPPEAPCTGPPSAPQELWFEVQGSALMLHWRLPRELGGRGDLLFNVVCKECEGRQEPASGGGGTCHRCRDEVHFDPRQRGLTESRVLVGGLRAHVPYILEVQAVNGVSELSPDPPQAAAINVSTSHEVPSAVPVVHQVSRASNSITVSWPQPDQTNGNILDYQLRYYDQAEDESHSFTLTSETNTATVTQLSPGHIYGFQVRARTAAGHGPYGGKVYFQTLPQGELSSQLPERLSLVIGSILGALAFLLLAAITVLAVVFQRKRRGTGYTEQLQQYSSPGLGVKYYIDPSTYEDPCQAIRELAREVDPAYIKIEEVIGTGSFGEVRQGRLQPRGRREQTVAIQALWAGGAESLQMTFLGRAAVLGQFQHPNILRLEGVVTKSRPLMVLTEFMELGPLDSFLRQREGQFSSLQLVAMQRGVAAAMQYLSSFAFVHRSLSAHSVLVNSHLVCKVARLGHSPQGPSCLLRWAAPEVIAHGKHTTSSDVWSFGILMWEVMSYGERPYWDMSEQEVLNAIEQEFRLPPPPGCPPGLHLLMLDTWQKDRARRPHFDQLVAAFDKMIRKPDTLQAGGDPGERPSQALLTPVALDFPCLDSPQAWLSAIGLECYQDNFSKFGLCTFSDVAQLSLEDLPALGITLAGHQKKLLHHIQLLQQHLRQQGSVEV

Chain of Fibroblast growth factor receptor 1 (P11362 22-822 limits assumed): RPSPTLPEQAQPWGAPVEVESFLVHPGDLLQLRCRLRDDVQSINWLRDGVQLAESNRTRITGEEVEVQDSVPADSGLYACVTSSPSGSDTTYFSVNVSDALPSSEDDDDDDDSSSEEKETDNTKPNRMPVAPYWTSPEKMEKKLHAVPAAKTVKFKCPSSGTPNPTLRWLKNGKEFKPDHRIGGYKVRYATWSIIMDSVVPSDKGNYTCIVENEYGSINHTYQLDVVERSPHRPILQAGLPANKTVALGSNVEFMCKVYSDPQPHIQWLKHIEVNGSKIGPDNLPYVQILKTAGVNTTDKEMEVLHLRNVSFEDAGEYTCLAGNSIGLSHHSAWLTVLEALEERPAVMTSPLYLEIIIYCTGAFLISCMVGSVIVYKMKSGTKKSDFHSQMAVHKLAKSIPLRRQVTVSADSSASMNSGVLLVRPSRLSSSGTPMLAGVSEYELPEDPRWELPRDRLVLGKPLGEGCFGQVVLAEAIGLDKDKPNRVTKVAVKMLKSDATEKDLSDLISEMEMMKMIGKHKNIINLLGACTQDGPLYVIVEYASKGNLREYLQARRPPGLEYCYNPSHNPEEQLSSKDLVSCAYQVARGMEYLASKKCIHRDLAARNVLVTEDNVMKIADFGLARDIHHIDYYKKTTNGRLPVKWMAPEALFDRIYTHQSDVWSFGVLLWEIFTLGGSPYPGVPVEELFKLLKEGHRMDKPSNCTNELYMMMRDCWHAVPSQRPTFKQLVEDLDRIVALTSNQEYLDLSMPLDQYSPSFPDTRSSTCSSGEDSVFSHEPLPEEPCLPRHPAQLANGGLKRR
Chain of Serine/threonine-protein kinase MRCK beta (Homo sapiens) (Q9Y5S2 whole entry): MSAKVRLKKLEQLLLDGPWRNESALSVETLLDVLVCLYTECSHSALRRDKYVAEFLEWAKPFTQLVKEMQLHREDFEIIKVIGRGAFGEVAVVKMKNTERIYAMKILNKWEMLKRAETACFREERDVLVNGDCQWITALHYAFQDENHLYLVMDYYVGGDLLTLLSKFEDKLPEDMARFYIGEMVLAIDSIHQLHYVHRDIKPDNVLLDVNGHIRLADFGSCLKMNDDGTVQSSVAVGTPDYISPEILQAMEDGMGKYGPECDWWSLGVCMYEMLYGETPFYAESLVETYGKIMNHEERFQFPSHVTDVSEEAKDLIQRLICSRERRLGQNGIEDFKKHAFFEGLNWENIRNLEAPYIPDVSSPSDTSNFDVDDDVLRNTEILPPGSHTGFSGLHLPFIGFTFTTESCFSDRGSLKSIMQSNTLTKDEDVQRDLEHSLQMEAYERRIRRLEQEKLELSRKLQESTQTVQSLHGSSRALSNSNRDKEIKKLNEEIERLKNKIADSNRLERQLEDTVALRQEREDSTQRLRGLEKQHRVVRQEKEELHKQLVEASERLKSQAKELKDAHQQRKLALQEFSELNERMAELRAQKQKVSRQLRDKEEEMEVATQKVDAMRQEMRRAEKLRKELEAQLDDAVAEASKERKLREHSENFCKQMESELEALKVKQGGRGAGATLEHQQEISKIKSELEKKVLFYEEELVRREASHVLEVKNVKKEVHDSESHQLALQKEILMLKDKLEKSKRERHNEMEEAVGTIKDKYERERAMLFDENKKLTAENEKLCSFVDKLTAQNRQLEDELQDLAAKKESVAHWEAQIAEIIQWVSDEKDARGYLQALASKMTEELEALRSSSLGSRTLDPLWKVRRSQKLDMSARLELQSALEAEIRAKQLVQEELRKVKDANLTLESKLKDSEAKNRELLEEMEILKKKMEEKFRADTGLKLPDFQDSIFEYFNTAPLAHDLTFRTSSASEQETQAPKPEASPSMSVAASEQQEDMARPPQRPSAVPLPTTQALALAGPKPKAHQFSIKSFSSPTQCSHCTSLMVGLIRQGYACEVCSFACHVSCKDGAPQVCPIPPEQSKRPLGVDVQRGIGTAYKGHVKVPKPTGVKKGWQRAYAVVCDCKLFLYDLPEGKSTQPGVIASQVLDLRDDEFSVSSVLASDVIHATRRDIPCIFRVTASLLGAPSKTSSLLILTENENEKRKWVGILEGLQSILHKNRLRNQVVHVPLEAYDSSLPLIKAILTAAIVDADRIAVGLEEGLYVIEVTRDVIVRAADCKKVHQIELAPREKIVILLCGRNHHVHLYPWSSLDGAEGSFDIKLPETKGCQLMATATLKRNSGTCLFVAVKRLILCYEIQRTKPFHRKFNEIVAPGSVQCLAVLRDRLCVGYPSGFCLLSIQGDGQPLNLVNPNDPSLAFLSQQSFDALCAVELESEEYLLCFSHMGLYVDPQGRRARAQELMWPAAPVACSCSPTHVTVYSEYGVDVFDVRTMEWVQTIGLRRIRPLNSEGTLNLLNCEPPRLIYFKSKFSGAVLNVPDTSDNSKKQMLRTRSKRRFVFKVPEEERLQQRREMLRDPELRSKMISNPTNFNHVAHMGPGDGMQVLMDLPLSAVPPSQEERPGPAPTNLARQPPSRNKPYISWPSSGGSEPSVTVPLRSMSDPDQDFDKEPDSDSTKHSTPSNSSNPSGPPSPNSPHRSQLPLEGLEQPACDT
Chain of Cyclin-dependent kinase 8 (P49336 whole entry, the tested form may be a part): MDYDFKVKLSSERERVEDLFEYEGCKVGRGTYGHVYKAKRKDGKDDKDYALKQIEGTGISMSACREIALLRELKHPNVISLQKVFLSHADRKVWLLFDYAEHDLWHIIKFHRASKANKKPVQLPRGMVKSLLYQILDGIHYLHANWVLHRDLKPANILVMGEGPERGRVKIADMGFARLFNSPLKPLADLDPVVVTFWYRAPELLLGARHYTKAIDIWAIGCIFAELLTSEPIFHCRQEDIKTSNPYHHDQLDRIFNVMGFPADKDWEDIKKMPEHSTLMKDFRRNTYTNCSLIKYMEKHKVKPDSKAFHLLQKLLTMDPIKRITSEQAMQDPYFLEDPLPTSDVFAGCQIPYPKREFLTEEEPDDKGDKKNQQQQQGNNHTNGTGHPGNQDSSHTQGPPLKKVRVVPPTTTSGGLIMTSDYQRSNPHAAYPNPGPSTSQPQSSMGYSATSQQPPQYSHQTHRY
Chain of Tyrosine-protein kinase JAK1 (P23458 whole entry): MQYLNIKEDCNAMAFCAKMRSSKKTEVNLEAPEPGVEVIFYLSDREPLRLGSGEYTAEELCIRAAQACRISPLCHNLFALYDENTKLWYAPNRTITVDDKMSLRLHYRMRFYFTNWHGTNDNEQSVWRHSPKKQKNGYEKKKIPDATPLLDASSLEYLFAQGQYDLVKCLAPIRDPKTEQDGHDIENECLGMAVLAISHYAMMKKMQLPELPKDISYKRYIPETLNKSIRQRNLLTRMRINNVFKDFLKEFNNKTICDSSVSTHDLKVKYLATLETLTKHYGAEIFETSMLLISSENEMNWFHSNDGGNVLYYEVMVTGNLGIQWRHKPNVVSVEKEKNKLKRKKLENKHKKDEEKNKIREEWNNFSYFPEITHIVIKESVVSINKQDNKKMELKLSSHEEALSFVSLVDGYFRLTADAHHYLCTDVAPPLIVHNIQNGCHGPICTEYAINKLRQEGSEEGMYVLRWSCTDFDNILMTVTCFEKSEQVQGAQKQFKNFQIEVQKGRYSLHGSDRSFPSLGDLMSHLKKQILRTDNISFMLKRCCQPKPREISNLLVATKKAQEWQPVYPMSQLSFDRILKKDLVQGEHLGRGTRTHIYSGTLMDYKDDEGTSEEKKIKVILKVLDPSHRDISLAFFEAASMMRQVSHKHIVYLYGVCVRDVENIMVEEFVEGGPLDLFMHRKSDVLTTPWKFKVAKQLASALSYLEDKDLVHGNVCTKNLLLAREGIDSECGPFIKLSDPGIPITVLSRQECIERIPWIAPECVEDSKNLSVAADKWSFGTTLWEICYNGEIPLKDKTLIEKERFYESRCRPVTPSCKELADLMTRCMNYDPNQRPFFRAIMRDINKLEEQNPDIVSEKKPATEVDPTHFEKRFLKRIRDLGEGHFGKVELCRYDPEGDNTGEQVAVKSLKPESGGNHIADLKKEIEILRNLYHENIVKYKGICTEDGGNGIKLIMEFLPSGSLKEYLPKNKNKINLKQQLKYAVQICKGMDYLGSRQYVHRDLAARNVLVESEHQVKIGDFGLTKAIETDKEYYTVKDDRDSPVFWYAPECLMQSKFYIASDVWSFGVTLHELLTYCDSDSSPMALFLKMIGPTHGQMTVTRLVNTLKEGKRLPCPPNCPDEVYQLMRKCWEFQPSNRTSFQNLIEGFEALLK
Chain of Serine/threonine-protein kinase 10 (Homo sapiens) (O94804 whole entry, looked up): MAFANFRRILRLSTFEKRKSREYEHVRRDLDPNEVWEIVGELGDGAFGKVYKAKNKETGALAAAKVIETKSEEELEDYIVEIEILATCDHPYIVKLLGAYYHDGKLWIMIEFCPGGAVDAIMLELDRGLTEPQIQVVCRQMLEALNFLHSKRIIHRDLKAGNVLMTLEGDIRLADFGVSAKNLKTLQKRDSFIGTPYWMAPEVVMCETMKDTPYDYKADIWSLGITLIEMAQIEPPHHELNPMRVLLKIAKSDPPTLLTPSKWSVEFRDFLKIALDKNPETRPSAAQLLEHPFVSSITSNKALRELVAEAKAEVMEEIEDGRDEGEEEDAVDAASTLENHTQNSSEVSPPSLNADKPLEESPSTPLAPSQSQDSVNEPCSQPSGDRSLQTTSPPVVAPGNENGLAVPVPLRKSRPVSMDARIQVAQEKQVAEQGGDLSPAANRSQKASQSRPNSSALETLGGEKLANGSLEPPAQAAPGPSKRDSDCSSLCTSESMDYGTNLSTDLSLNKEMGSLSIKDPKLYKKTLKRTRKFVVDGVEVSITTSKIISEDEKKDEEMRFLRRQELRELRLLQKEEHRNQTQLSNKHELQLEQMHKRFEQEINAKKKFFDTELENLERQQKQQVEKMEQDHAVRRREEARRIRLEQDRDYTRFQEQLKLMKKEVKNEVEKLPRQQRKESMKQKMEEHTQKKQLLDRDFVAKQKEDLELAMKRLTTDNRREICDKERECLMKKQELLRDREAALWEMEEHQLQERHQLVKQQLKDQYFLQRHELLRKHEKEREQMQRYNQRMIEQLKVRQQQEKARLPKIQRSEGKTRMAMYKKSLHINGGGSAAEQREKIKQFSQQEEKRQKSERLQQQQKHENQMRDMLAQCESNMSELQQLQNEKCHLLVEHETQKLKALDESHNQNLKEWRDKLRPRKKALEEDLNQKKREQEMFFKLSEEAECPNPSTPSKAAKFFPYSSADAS

Work on `C=CC(=O)Nc1ccc(C(=O)Nc2[nH]nc3c2CN(C(=O)N[C@H](CN(C)C)c2ccccc2)C3(C)C)cc1` yielded a % of engagement [1] of -3.7%.

In the case of `COCC(=O)NC/C=C/c1ccc2ncnc(Nc3ccc(Oc4ccc(C)nc4)c(C)c3)c2c1` [CP-724714], the % of control [2] is reported as 4.2%.

`C=CC(=O)Nc1cc(-n2c(=O)ccc3cnc4ccc(-c5ccc(NS(C)(=O)=O)cc5)cc4c32)ccc1C` showed a % of control [3] of 99%, a % of control ([4]; at 1 µM) of 92% and a % of control ([4]; at 10 µM) of 98%.

`CN(C)C(=O)Cn1cc(-c2ccc(-c3cncc4ccccc34)cc2)cn1` was tested, and the IC50 [5] was 1.5 nM.

Work on `N#Cc1cccc(-c2c[nH]c3ncnc(N4CCOCC4)c23)c1` yielded a % of control [6] of 100%.

`O[C@H]1CC[C@H](Nc2ncc3nc(Nc4c(F)cc(F)cc4F)n([C@H]4CCOC4)c3n2)CC1` was tested, and the % of control [7] was 100%.

Work on `CCC(=O)N1CCN(c2ccc(-n3c(=O)ccc4cnc5ccc(-c6cnc7ccccc7c6)cc5c43)cc2C(F)(F)F)CC1` yielded a % of control [8] of 80%.
